Measured values: patent US20220081395A1, “DISULPHIDE COMPOUNDS” (NEEM BIOTECH LIMITED, priority 2019, published 2022)

Tests used:
Format in all cases: cell-based
[1] = test system: Pseudomonas aeruginosa; assay: Minimum Biofilm Inhibition Concentration (MBIC) assay, biofilm formation, crystal violet; conditions: IC50 of compound as % of IC50 of ajoene in the same experiment; <100% more effective than ajoene
Method: (§1) Compounds were assayed for their ability to inhibit S. aureus or P. aeruginosa biofilm formation as follows.
(§2) All compounds were prepared as a 30 mM stock in DMSO and diluted in tryptic soy broth (TSB) to 48 μM (S. aureus) or 144 μM (P. aeruginosa). The compounds were further serially diluted two-fold from 48 μM to 0.75 μM (S. aureus) or 144 μM to 2.3 μM (P. aeruginosa) and added to a 96-well plate at 100 μl per well. Overnight cultures of bacteria were diluted to an OD600=0.07 in fresh TSB and 100 μl of the diluted bacterial culture was added to the compound containing wells. The bacteria were incubated in the presence of the compounds overnight at 37° C. After incubation, the planktonic bacteria were removed by three washes using H2O and the remaining biofilm was stained using crystal violet and quantified photometrically at A570. Absorbances corresponding to biofilm mass were plotted versus compound concentration and IC50 values were calculated. Reference: O'Toole G A, Microtiter Dish Biofilm Formation Assay J. Vis. Exp (2011).
(§3) MBIC assays of the compounds are carried out alongside ajoene for reference and standardization. The IC50 of ajoene against S. aureus and P.aeruginosa is well-defined and reproducible allowing ajoene to serve as an effective control for the experiment. As such, the IC50 calculated for the tested compounds are compared to the IC50 of ajoene in every experiment and are therefore represented as % of ajoene.

[2] = test system: Staphylococcus aureus; assay: as above; conditions: IC50 of compound as % of IC50 of ajoene in the same experiment; <100% more effective than ajoene
Method: as §1, §2, §3

[3] = test system: P. aeruginosa biofilms; assay: Inhibition of respiration/viability of established biofilms grown in artificial sputum medium (TTZ viability assay), with tobramycin; conditions: established 24 h biofilms in ASM, compound 5 hours, then 10 μg/ml tobramycin 16 hours; FIG. 3
Method: Compound B was tested for its efficacy to inhibit P. aeruginosa biofilms in artificial sputum medium (ASM) as follows. Overnight cultures of P. aeruginosa were re-seeded to an OD595=0.07 and further diluted 1:100 in ASM and grown for 24 hours at 37° C. to allow for biofilm formation. Compound B was prepared as 30 mM stock in 100% DMSO and established biofilms were treated with the compound at increasing concentrations or left untreated for 5 hours at 37° C. All samples were then treated with 10 μg/ml tobramycin for 16 hours at 37° C. The artificial sputum was liquified using sputasol. The respiratory potential of the biofilms was quantified using a tetrazolium chloride (2,3,5-triphenyl tetrazolium chloride (TTZ)) viability assay.

[4] = test system: P. aeruginosa; assay: Bacterial Exudate Scratch Test (BEST), HaCaT monolayer exposed to P. aeruginosa exudate
Method: (§4) Bacterial cultures (S. aureus and P. aeruginosa) were grown prophylactically with test compounds for 24 hours and exudates were collected.
(§5) Microorganisms were prepared by growing in tryptone soy broth (TSB) at 37° C., 150 rpm for 16 hours.
(§6) The exudates were obtained by first placing in a 24-well plate, 1 mL of each compound treated media and vehicle control media in triplicate. 1 mL of untreated TSB was then added to 3 wells for an untreated control and 2 mL TSB was added to 3 wells for sterility control. Except for the sterility control wells, 1 mL of bacterial suspension was added to each well and mixed well. The plate was then incubated in a humidified incubator at 37° C. for 24 hours at 75 rpm. Following the appropriate incubation time, the entire contents of the well were removed and transferred into a sterile centrifuge tube. The tube was then centrifuged at 10,000 rpm for 10 minutes at 4° C. to pellet the biomass. The supernatant was filtered using a Luer Lock […] filter into another sterile tube. The exudate was aliquoted into 500 μl aliquots in 0.5 mL PCR tubes. […]
(§7) The plates were incubated for 20 hours at 37° C., 5% CO2 and images were taken at the time points as required. Scratch ‘size’ was analysed using ImageJ software.
(§8) The rate of cellular proliferation of the HaCaT cells is calculated at 20 hours as a percentage of the initial scratch size at 0 hours.

[5] = test system: S. aureus; assay: Bacterial Exudate Scratch Test (BEST), HaCaT monolayer exposed to S. aureus exudate
Method: as §4, §5, §6, §7, §8

P. aeruginosa MBIC: % of Ajoene positive control IC50 [1]	S. aureus MBIC: % of Ajoene positive control IC50 [2]	Structure (SMILES)	also measured
58 % of Ajoene	4 % of Ajoene	COc1ccc(CSSc2ccccc2C[S+]([O-])Cc2ccccc2)cc1 (centres unmarked)	–
35 % of Ajoene	69 % of Ajoene	O=S(=O)(Cc1ccccc1)Cc1cccc(SSCc2ccc(F)cc2)c1	–
20 % of Ajoene	43 % of Ajoene	COc1ccc(CSSc2cccc(C[S+]([O-])Cc3ccccc3)c2)cc1 (centres unmarked)	–
32 % of Ajoene	34 % of Ajoene	[O-][S+](Cc1ccccc1)Cc1cccc(SSCc2ccc(C(F)(F)F)cc2)c1 (centres unmarked)	–
76 % of Ajoene	89 % of Ajoene	C=CCSSc1ccccc1C[S+]([O-])Cc1ccccc1 (centres unmarked)	–
21 % of Ajoene	62 % of Ajoene	[O-][S+](Cc1ccccc1)Cc1cccc(SSCc2ccccc2)c1 (centres unmarked)	–
39.9 % of Ajoene	89 % of Ajoene	[O-][S+](Cc1ccccc1)Cc1ccccc1SSCc1ccccc1 (centres unmarked)	–
94 % of Ajoene	11 % of Ajoene	CCC(C)CSSc1cccc(CS(=O)(=O)Cc2ccccc2)c1 (centres unmarked)	–
15 % of Ajoene	22.5 % of Ajoene	CCC(C)CSSc1cccc(C[S+]([O-])Cc2ccccc2)c1 (centres unmarked)	–
32 % of Ajoene	90 % of Ajoene	CC(C)CSSc1cccc(C[S+]([O-])Cc2ccccc2)c1 (centres unmarked)	–
100 % of Ajoene	22 % of Ajoene	C=CCSSc1cccc(CS(=O)(=O)Cc2ccco2)c1	–
–	–	CSSc1cccc(CS(=O)(=O)Cc2ccccc2)c1 [Compound B, 1-(methyldisulfanyl)-3-(phenylmethanesulfonylmethyl)benzene]	effect on efficacy of tobramycin to inhibit biofilm respiration/viability [3]: enhances the efficacy of tobramycin
–	–	C=CCSSc1cccc(CS(=O)(=O)Cc2ccccc2)c1 [drawing 83]	scratch area at 20 hours (percentage of initial scratch size at 0 hours) ([4]; HaCaT exposed to P. aeruginosa exudate pre-treated with test compound (250 μM), vehicle 109%, no exudate 9%): 64%; effect on inhibition of scratch closure in HaCaT cells ([4]; prophylactic (pre-biofilm) treatment of P. aeruginosa with 250 μM test compound, versus vehicle pre-treatment, FIG. 5): reduces the inhibition of scratch closure; scratch area at 20 hours ([5]; HaCaT exposed to S. aureus exudate pre-treated with test compound (125 pM), vehicle 66% remaining): almost complete closure of the scratch area; effect on inhibition of scratch closure in HaCaT cells ([5]; prophylactic (pre-biofilm) treatment of S. aureus with 125 pM test compound, versus vehicle pre-treatment, FIG. 4): completely rescues the inhibition of scratch closure

Structure (SMILES)	P. aeruginosa MBIC: % of Ajoene positive control IC50 [1]	S. aureus MBIC: % of Ajoene positive control IC50 [2]	also measured
C=CCSSc1cccc(CS(=O)(=O)Cc2ccccc2)c1 [drawing 76]	82 % of Ajoene	5 % of Ajoene	–
